According to patent US11529359B2, “Use of GABAA receptor modulators for treatment of itch” (UNIVERSITÄT ZÜRICH, priority 2016, dated 2022):

Assays:
α2β3γ2 GABAARs = biological target: T1, α2β3γ2 GABAARs (Homo sapiens, UniProt P18507+P47869); assay: GABA-evoked currents, recombinant GABAARs in HEK293 cells (α2); format: cell-based; details: HEK293 cells transiently transfected
T1 construct: expressed in transfected cells; host or cells: HEK293 cells (ATCC), transient transfection
From the text: HEK293 cells were transfected using lipofectamine LTX (Dugue, G. P., et al. Neuron, 2009, 61, 126-139). To ensure expression of the γ2 subunit (required for modulation of GABAARs by BDZs) in all recorded cells, the inventors transfected cells with a plasmid expressing the γ2 subunit plus eGFP from an IRES, and only selected eGFP-positive cells for recordings. The transfection mixture contained (in μg): 1 α1, 1 β2, 3 γ2/eGFP (used as a marker of successful transfection) or 1 αx, 1 β3, 3 γ2/eGFP in case of α2, α3, or α5GABAARs. Recordings were made 18-36 hrs after transfection. Whole-cell patch-clamp recordings of GABA-evoked currents were made at room temperature (20-24° C.) and at a holding potential of −60 mV. Recording electrodes were filled with solution containing (in mM): 120 CsCl, 10 EGTA, 10 HEPES (pH 7.40), 4 MgCl2, 0.5 GTP and 2 ATP. The external solution contained (in mM): 150 NaCl, 10 KCl, 2.0 CaCl2, 1.0 MgCl2, 10 HEPES (pH 7.4), and 10 glucose. GABA was applied to the recorded cell using a manually controlled pulse (4-6 s) of a low sub-saturating GABA concentration (ECS). ECs values of GABA were determined for all subunit combinations analyzed. […] Imax was determined as the average maximal current elicited by a concentration of 1 mM GABA. […]

locomotor activity = assay: open field test, locomotor activity / sedation; format: in vivo, wild-type mice
Procedure: After injection, the mice were placed in an open field arena and their activity was recorded for one hour starting one hour after injection.
Locomotor activity, muscle relaxant effects and motor coordination were assessed as described previously (Ralvenius, W. T., Benke, D., Acuña, M. A., Rudolph, U. & Zeilhofer, H. U. Nature Communications, 2015, 6). […] Motor coordination was assessed with a rotarod accelerating from 4 rpm to 40 rpm within 5 min. […] Fifteen measurements were taken per mouse. To assess muscle relaxation, mice were placed with their forepaws onto a metal horizontal wire placed 20 cm above ground.

T1 sequence (P47869 29-451): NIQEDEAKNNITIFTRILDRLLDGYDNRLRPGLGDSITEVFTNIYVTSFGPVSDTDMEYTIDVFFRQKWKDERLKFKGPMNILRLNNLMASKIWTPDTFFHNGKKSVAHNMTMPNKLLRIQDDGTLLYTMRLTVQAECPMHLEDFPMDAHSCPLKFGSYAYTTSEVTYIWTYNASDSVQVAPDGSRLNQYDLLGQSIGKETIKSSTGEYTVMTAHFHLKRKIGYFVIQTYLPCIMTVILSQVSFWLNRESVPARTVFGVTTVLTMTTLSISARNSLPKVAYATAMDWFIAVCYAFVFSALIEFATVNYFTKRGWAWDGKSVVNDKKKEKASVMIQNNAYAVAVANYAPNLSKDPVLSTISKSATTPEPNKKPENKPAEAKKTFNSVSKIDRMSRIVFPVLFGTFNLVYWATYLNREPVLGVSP
T1 sequence (P28472 26-473 partner): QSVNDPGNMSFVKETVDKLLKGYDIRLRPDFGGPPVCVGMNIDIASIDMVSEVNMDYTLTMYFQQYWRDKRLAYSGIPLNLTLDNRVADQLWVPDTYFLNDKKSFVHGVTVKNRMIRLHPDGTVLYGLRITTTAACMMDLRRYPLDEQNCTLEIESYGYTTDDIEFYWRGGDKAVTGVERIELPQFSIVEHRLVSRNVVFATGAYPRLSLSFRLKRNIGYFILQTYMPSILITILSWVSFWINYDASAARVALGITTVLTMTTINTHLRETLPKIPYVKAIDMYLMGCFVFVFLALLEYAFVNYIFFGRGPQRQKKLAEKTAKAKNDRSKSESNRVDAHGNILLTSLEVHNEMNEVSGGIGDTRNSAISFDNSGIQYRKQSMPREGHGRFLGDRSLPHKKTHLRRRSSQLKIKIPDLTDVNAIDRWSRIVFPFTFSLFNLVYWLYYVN
T1 sequence (P18507 40-467 limits assumed): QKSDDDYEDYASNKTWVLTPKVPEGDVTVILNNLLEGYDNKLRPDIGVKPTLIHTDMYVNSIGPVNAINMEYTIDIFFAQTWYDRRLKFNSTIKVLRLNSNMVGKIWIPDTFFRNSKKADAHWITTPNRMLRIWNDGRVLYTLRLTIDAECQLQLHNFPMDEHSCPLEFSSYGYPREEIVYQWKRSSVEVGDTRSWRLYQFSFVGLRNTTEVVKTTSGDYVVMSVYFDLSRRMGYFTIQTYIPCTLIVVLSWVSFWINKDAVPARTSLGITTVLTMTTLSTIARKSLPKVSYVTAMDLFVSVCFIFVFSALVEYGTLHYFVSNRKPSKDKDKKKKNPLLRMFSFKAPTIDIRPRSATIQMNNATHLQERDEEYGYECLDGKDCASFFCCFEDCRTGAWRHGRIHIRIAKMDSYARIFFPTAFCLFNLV

With `CC(C)(O)c1cnn2c(-c3ccc(F)c(-c4c(F)cccc4C#N)c3)cnc2n1` [TPA023B, 6,2′-difluoro-5′-[3-(1-hydroxy-1-methylethyl)imidazo[1,2-b][1,2,4]triazin-7-yl]biphenyl-2-carbonitrile] the “activity at the benzodiazepine binding site (potentiation of GABA-induced currents)” value (α2β3γ2 GABAARs) was “partial agonistic activity”, the “locomotor activity in the open field test” value (locomotor activity; 1 and 3 mg/kg p.o.) was “increased locomotor activity” and the sedative effects (locomotor activity; doses up to 3 mg/kg (p.o.)) was “did not show sedative effects”. The “activity in open field arena vs vehicle” value (locomotor activity; per oral 10 mg/kg and 30 mg/kg, recorded 1-2 h after injection) was “significant increase in activity”.
